Results published in article PMC6934184, “Selective DNA-PKcs inhibition extends the therapeutic index of localized radiotherapy and chemotherapy” (The Journal of Clinical Investigation, 2019).

Columns and labels:
Huh7 = assay: clonogenic survival with doxorubicin; type: cell-based, human; details: NU5455 1 μM, 24 hours
Huh7 cells = Huh7 cells with single doxorubicin-loaded DC M1 bead (SRB cell density, γH2AX Western); type: cell-based, Human
Protocol: Exponentially growing HAP-1 DNA-PK proficient or deficient cells were seeded into 6-well plates and allowed to re-attach. Cells were then incubated with vehicle (DMSO) or NU5455 (5 µM) 1 hour prior to irradiation and for a further 24 hours post-irradiation. Cells were then washed in PBS and incubated in drug-free medium to allow for colony formation.
To quantify the number of proliferating versus confluent cells, cells were pulsed with 5-ethynyl-2’-deoxyuridine (EdU), and labeled using the Click-iT Plus EdU Alexa Fluor 647 Flow Cytometry Assay Kit together with FxCycle Violet Stain to label DNA (both Thermo Fisher) following the manufacturer’s instructions. Samples of cells taken from tho se used in the clonogenic assay were used to confirm the percentage of cells in each cell cycle phase.
Samples were acquired on a Symphony A5 flow cytometer (Becton Dickinson, UK).
Cell cycle phase status was also confirmed by microscopy, using cells grown on coverslips i n 6-well plates. […] Coverslips were mounted using Prolong Glass with NucBlue (ThermoFisher) and images were acquired on the Leica TCS SP8 confocal fluorescence […]
Treated cells were fixed with 10% (w/v) trichloroacetic acid (Fisher) at 4°C overnight. Cells were stained with sulphorhodamine B (SRB, 0.4% (w/v) in water), and cell density quantified […]
by determining the absorbance at 570 nm of SRB stain dissolved in Tris base (10 mM, pH 10.5) using a spectrophotometer (BMG Labtech). […]
Blood samples were centrifuged at 6700 x g for 3 minutes, the plasma removed and stored at -20°C prior to analysis for drug by HPLC with fluorescence detection. […]
Samples (20 µl) were applied to a 10 x 0.46 cm Genesis C18 4 µm column (Grace Vydac) fitted with an in-line filter. […] Analytes were detected by fluorescence at 390 nm following excitation at 242 nm. Plasma concentrations were determined using linear standard curves (0.01 µM – 10 µM, R2 > 0.98) generated by extracting compounds from […]
Readings were taken every 2 hours for the first 10 hours and then at 24 hour intervals. […]

[1] = tested on: HCT116 p53 null (-/-) cells; assay: caspase activity after irradiation; type: cell-based, Human; details: 1 µM, 1 hour prior to 2 Gy; 72 hours
Protocol: (§1) Supplemental Figure 19. […] Fold […]
(§2) caspase activity in HCT116 parental and p53 null (-/-) cells 72 hours following pre-treatment with NU5455 (1 µM) or DMSO for 1 hour prior to irradiation (0 or 2 Gy). Fold caspase activity was normalized to cell density determined by SRB staining. Data represent the mean ± SEM from three independent experiments. NS = not significant, **** P < 0.0001 (2-way ANOVA).

HCT116 parental cells = assay: caspase activity after irradiation; type: cell-based, Human; details: 1 µM, 1 hour prior to 2 Gy; 72 hours
Protocol: as §1, §2

CN(C(=O)CN1CCOCC1)c1ccc2sc3c(-c4cccc5c(=O)cc(N6CC7CCC(C6)O7)oc45)cccc3c2c1 [NU5455]
Fold potentiation of doxorubicin (LD80, SER80) (Huh7): 3.5 fold
inhibition of cell density, single agent (Huh7 cells; 96 hours continuous, NU5455 1 μM or a single doxorubicin-loaded bead): ~ 20%
reduction of cell density, combination treatment (Huh7 cells; 96 hours, NU5455 1 μM + single doxorubicin-loaded bead): 57.7% ± 2.1%
γH2AX protein levels (DNA damage induced by released doxorubicin) (Huh7 cells; NU5455 1 μM + doxorubicin-loaded bead, 24–96 hours, Western blotting): augment and sustain the DNA damage
radiation-induced apoptosis (fold caspase activity) [1]: increases radiation-induced apoptosis
radiation-induced apoptosis (fold caspase activity) (HCT116 parental cells): increases radiation-induced apoptosis
